The values that follow come from US20100048498A1, “STABLE NON-DIHYDRATE AZITHROMYCIN ORAL SUSPENSIONS” (priority 2004, published 2010).

Data set [1] is described as follows: Effects of flavoring components upon azithromycin form G conversion in constituted POS. The note with it: room temperature, 24-hours. Type of data set: physicochemical. On the procedure: Standards of these identified solvent components were then used to investigate the source of the stability problem introduced by these flavorings. The estimated concentration of each solvent in a constituted POS was calculated based on the GC-MS quantification of the specified solvent in the flavorings. Aqueous solutions of each solvent/component were then created at these concentrations and 18 mls of each solvent-solution was used to constitute an unflavored POS formulation I sample using form G. The constituted drug suspensions were stored at room temperature for 24-hours, before being filtered and analyzed by SS-NMR for quantification of azithromycin form change over this interval. POS formulations I and II were constituted with 18 mls of water and stored identically to serve as controls for this experiment.

The nature of data set [2]: Effect of cyclodextrins on non-dihydrate azithromycin form conversion in constituted POS formulation II. Type of data set: physicochemical. Conditions: 24 hours room temperature. On the procedure:
The effect of adding a complexing agent such as cyclodextrin on the stability of non-dihydrate azithromycin forms G, M and F against conversion in a constituted POS formulation were evaluated.
Forms G, M and F of azithromycin were formulated into POS formulation II. Various cyclodextrins were added to the POS formulation II and the resulting samples were constituted with 18 mls of water. The suspensions were then stored for 24 hours at room temperature. At the end of the storage time, the suspensions were filtered and the recovered solids were weighed and analyzed by SS-NMR to quantify the presence of azithromycin dihydrate (form A). The control samples were formulated into formulation II with non-dihydrate azithromycin form G, M and F without cyclodextrins and were constituted with water, stored, filtered and analyzed identically to the cyclodextrin samples described above. A control, which had no cyclodextrin was run with each series of experiments. The SS-NMR data are presented in Tables 10, 11, 12 and the results are given as weight percent (% wt), of the recovered azithromycin sample.

Consider `CC[C@H]1OC(=O)[C@H](C)[C@@H](O[C@H]2C[C@@](C)(OC)[C@@H](O)[C@H](C)O2)[C@H](C)[C@@H](O[C@@H]2O[C@H](C)C[C@H](N(C)C)[C@H]2O)[C@](C)(O)C[C@@H](C)CN(C)[C@H](C)[C@@H](O)[C@]1(C)O` [Form G, azithromycin sesquihydrate], for which the “% Form A” value is reported as 0% in data set [1] (Formulation I constituted with 18 mL 0.002 mg/ml ethyl ester propanoic acid); 0% in data set [1] (Formulation I constituted with 18 mL 0.025 mg/ml 3-methyl-1-butanol); 13% in data set [1] (Formulation I constituted with 18 mL 0.043 mg/ml isoamyl isovalerate); 0% in data set [1] (Formulation I constituted with 18 mL 0.144 mg/ml 2-methyl-butyl acetate); 0% in data set [1] (Formulation I constituted with 18 mL 0.197 mg/ml ethyl acetate); 0% in data set [1] (Formulation I constituted with 18 mL 0.587 mg/ml benzaldehyde). The “% Form A” value in data set [1] (Formulation I constituted with 18 mL 0.785 mg/ml 3-methyl-butyl acetate + 0.562 mg/ml benzaldehyde) was 11%; in data set [1] (Formulation I constituted with 18 mL 0.815 mg/ml 3-methyl-butyl acetate), 2%; in data set [1] (Formulation I constituted with 18 mL Water, listed as form G, sesquihydrate), “no conversion”; in data set [1] (Formulation I constituted with 18 mL Water, sesquihydrate), 0%; in data set [1] (Formulation II constituted with 18 mL Water, listed as form G, sesquihydrate) it was “approximately 71%”; in data set [1] (Formulation II constituted with 18 mL Water, sesquihydrate), 71%. In addition, the “% Form A” value in data set [2] (POS Formulation II + Hydroxypropyl β-cyclodextrin 1.2 % w/w, Series 2, 18 mls water) was determined as 4.0%; in data set [2] (POS Formulation II + Hydroxypropyl β-cyclodextrin 11.1 % w/w, Series 3, 18 mls water), 4.9%; in data set [2] (POS Formulation II + Sulfobutylether β-cyclodextrin 1.2 % w/w, Series 2, 18 mls water), 14.4%; in data set [2] (POS Formulation II + Sulfobutylether β-cyclodextrin 11.1 % w/w, Series 3, 18 mls water) it was 7.0%; in data set [2] (POS Formulation II + α-cyclodextrin 1.2 % w/w, Series 1, 18 mls water), 4.8%; in data set [2] (POS Formulation II + β-cyclodextrin 1.2 % w/w, Series 2, 18 mls water) it was 8.3%. The “% Form A” value in data set [2] (POS Formulation II + γ-cyclodextrin 1.2 % w/w, Series 1, 18 mls water) was determined as 13.4%; in data set [2] (POS Formulation II, no cyclodextrin (Control), Series 1, 18 mls water) it was 68.3%; in data set [2] (POS Formulation II, no cyclodextrin (Control), Series 2, 18 mls water) it was 46.5%; in data set [2] (POS Formulation II, no cyclodextrin (Control), Series 3, 18 mls water), 67.9%.
